According to US4061737A, “Method for stimulating release of prolactin” (American Home Products Corporation, priority 1976, dated 1977):

Legend:
[1] = system: Male Charles River CD rats; test: Prolactin plasma levels in rats 15 minutes after enkephalin injection (radioimmunoassay); format: in vivo, rat; details: for Change in prolactin levels upon injection (in words): 5 mg/kg., subcutaneous or intravenous
Protocol: Male Charles River CD rats were injected with the enkephalin (in saline) or saline alone either subcutaneously or intravenously via the femoral vein. Fifteen minutes later the animals were decapitated and blood collected (12 mg. versene and 6000 units of Trasylol added per tube). Each plasma sample was assayed for prolactin in quadruplicate by specific double antibody radioimmunoassays, using NIAMDD reagents and the procedure of Neill and Reichert, Endocrinology, 88, 548 (1971).

rat pituitary cells = test: Prolactin release in monolayer cultures of rat pituitary cells; format: cell-based; details: for Prolactin release versus control (in words): all levels from 5 ng/ml to 50 μg/ml; for Prolactin Release (mean ± SEM): 3 hours at 37° C., control 197 ± 13
Protocol: Monolayer cultures of enzymatically dispersed pituitary cells were prepared from male rats, using Eagle's minimal essential medium for growth. After incubation in triplicate dishes for 3 hours at 37° C. in 95% air: 5% CO2, the supernatant from each dish was assayed for prolactin in duplicate.

mouse vas deferens = details: cited from earlier work
guinea pig ileum = details: cited from earlier work
opiate receptor sites = details: cited from earlier work
[2] = in vivo; cited from earlier work
[3] = Experiment 2, 5mg/kg. SC, 15 minutes after injection, control 40 ± 3

Structure (SMILES)	Change in prolactin levels upon injection (in words) [1]	Prolactin plasma level (mean ± SEM) ([1]; Experiment 1, 5mg/kg. SC, 15 minutes after injection, control 29 ± 3)	Prolactin plasma level (mean ± SEM) [1, 3]	Prolactin plasma level (mean ± SEM) ([1]; Experiment 4, 5mg/kg. IV, 15 minutes after injection, control 43 ± 7)	Prolactin plasma level (mean ± SEM) ([1]; Experiment 5, 5mg/kg. IV, 15 minutes after injection, control 31 ± 3)	Prolactin plasma level (mean ± SEM) ([1]; Experiment 6, 5mg/kg. IV, 15 minutes after injection, control 47 ± 5)	Prolactin plasma level (mean ± SEM) ([1]; Experiment 8, 5mg/kg. IV, 15 minutes after injection, control 63 ± 10)	Prolactin release versus control (in words) (rat pituitary cells)	Prolactin Release (mean ± SEM) (rat pituitary cells; enkephalin 5 ng/ml)	Prolactin Release (mean ± SEM) (rat pituitary cells; enkephalin 50 ng/ml)	Prolactin Release (mean ± SEM) (rat pituitary cells; enkephalin 500 ng/ml)	Prolactin Release (mean ± SEM) (rat pituitary cells; enkephalin 5 μg/ml)	Prolactin Release (mean ± SEM) (rat pituitary cells; enkephalin 50 μg/ml)	Contractions of mouse vas deferens (in words) (mouse vas deferens)	Contractions of guinea pig ileum (in words) (guinea pig ileum)	Stereospecific binding of 3H-naloxone to guinea pig brain (in words) (opiate receptor sites)	Prolactin plasma level (mean ± SEM) ([1]; Experiment 3, 5mg/kg. IV, 15 minutes after injection, control 20 ± 1)	Prolactin plasma level (mean ± SEM) ([1]; rat, in vivo)	Prolactin release compared with leucine-enkephalin (in words) (rat pituitary cells; difference statistically significant at 50 μg/ml and 500 ng/ml)	Prolactin levels (in words) [2]
CC(C)C[C@H](NC(=O)[C@H](Cc1ccccc1)NC(=O)CNC(=O)CNC(=O)[C@@H](N)Cc1ccc(O)cc1)C(=O)O [Leu-Enkephalin, H-Tyr-Gly-Gly-Phe-Leu-OH]	more variable	40 ± 6 ng/mL	40 ± 3 ng/mL	29 ± 5 ng/mL	55 ± 5 ng/mL	59 ± 11 ng/mL	61 ± 10 ng/mL	significantly increased	247 ± 7 ng/mL	254 ± 14 ng/mL	253 ± 18 ng/mL	244 ± 10 ng/mL	260 ± 15 ng/mL	inhibit	inhibit	inhibit				
CSCC[C@H](NC(=O)[C@H](Cc1ccccc1)NC(=O)CNC(=O)CNC(=O)[C@@H](N)Cc1ccc(O)cc1)C(=O)O [Met-Enkephalin, H-Tyr-Gly-Gly-Phe-Met-OH]	consistent, statistically significant increase		49 ± 3 ng/mL					significantly increased	261 ± 15 ng/mL	257 ± 14 ng/mL	305 ± 14 ng/mL	255 ± 10 ng/mL	307 ± 8 ng/mL	inhibit	inhibit	inhibit	24 ± 1 ng/mL	43 ± 3	greater release of prolactin than leucine-enkephalin	
CN1CC[C@]23c4c5ccc(O)c4O[C@H]2[C@@H](O)C=C[C@H]3[C@H]1C5 [morphine, reference compound]														also elicited by morphine	also elicited by morphine					can raise prolactin levels
